# Assay results reported in publication PMC4003389, “Identification of pheromone components and their binding affinity to the odorant binding protein CcapOBP83a-2 of the Mediterranean fruit fly, Ceratitis capitata” (Insect Biochemistry and Molecular Biology, 2014).
# Several values for one entry are separate records, joined by “and”; a condition that tells them apart may be missing. Equal values may be shown once. Read-outs that look alike come from different tables or passages of the source.
# Columns and labels:
# CcapOBP83a-2 [1] = biological target: T1, CcapOBP83a-2 (Ceratitis capitata, UniProt W8W3U3); test: biochemical; assay type: binding; conditions: for IC50: read-out: IC50 (concentration of ligand halving the initial fluorescence level); for Ki: read-out: Ki (dissociation constant)
# T1 sequence (W8W3U3 entry or part of it): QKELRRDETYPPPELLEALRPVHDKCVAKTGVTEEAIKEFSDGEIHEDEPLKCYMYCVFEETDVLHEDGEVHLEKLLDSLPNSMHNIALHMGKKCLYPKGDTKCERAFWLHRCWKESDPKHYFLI
# Experimental: The 1-NPN/protein mixture was excited at 337 nm and the emission was recorded between 380 and 450 nm on a Perkin Elmer LS 55 Fluorescence spectrometer (Cambridge–UK) at 25 °C in a right angle configuration with a 1 cm light path quartz cuvette. The excitation and emission slits were both 5 nm. Data were recorded and graphed using FL WinLab Software (Perkin–Elmer). […] Analyses were performed by nonlinear regression curve fitting using GraphPad Prism 5 (GraphPad Software, Inc, La Jolla, USA).
# [2] = tested on: antennae of male and female C. capitata; test: Coupled GC–EAG of male volatile extract on medfly antennae; parameters: species or system Ceratitis capitata; conditions: for electrophysiological (EAG) response, in words: GC–EAG of male volatile extract; for EAG response: number of females (F) that showed a positive EAG response: female antennae; for EAG response: number of females (F) that showed a positive EAG response / EAG response: number of males (M) that showed a positive EAG response: in a total of five replicates, GC–EAG; for EAG response: number of males (M) that showed a positive EAG response: male antennae
# Experimental: Electrical responses to chemical stimuli were recorded from the antennae of both sexes using 4 day-old virgin individuals. Electroantennogram (EAG) recordings were made with Ag–AgCl glass microelectrodes filled with Ringer solution (for 1 L H2O solution: 7.2 g NaCl, 0.37 g KCl, 0.17 g CaCl2, pH 7.3–7.4). The head of a fly (both male and female), anaesthetised by chilling, was excised from the body with a microscalpel and the tip of one of the two arista was cut off with micro-scissors. The indifferent electrode was inserted in the head (from the base to the top-frontal part) and the recording electrode was positioned over the cut arista. Signals were passed through a high impedance amplifier (UN-06, Hilversum, The Netherlands) and analysed using a customised software package (Syntech). […] The oven was maintained at 30 °C for 2 min and then programmed for increments at 5 °C min^−1 to 250 °C. The carrier gas was helium. Outputs from the EAG amplifier and the FID were monitored simultaneously and analysed using the Syntech software package. […] The stimulus (2 s duration) was delivered into a purified airstream (1 l/min) flowing continuously over the preparation using a stimulus controller (Syntech CS02). Samples (10 μl) of the standard solution of test compounds (1 mg/ml in redistilled hexane) were applied in the cartridge. The control stimulus was hexane (10 μl). Five replicates were performed for each sample using antennae from 5 different flies.
# CcapOBP83a-2 [3] = biological target: T1, CcapOBP83a-2; test: Binding of fluorescent probe 1-NPN to CcapOBP83a-2 (fluorescence titration); conditions: for Kd: dissociation constant (KD) of 1-NPN, protein 2 μM, 20 mM Tris–HCl pH 7.4; for saturation level of 1-NPN: protein concentration ≈2 μM
# Experimental: To measure the binding affinity of the fluorescent probe 1-NPN to CcapOBP83a-2, a 2 μM solution of protein in 20 mM Tris–HCl pH 7.4 was titrated with aliquots of 1 mM 1-NPN stock to a final concentration of 0.1–50 μM in methanol. The 1-NPN/protein mixture was excited at 337 nm and the emission was recorded between 380 and 450 nm on a Perkin Elmer LS 55 Fluorescence spectrometer (Cambridge–UK) at 25 °C in a right angle configuration with a 1 cm light path quartz cuvette. The excitation and emission slits were both 5 nm. Data were recorded and graphed using FL WinLab Software (Perkin–Elmer). The affinity of other ligands was measured in competitive binding assays, using 1-NPN as fluorescent reporter at 3 μM concentration and final concentrations of each competitor from 0.1 μM to 50 μM. To determine binding constants, the fluorescent intensity values at the maximum emission (after subtracting those measured without protein) were plotted against free ligand concentrations. […] IC50 values (the concentration of ligand halving the initial fluorescence level) were used to calculate each competitor dissociation constants (KD), by the equation: KD = IC50/1 + [1 − NPN]/K1-NPN, where [1 − NPN] is the free concentration of 1 − NPN and K1-NPN is the dissociation constant of the 1-NPN/protein complex. Analyses were performed by nonlinear regression curve fitting using GraphPad Prism 5 (GraphPad Software, Inc, La Jolla, USA).
# [4] = first fraction, ligand 50 μM, 1-NPN 3 μM
# [5] = second fraction, ligand 50 μM, 1-NPN 3 μM
SMILES,Int (end point fluorescent level): fluorescence intensity after the maximum quantity of chemical was added (CcapOBP83a-2 [1]; [4]),Int (end point fluorescent level): fluorescence intensity after the maximum quantity of chemical was added (CcapOBP83a-2 [1]; [5]),"electrophysiological (EAG) response, in words [2]",EAG response: number of females (F) that showed a positive EAG response [2],EAG response: number of males (M) that showed a positive EAG response [2],"IC50 (CcapOBP83a-2 [1]; second fraction, 1-NPN 3 μM) [nM]","Ki (CcapOBP83a-2 [1]; second fraction, 1-NPN 3 μM)",Kd (CcapOBP83a-2 [3]; first fraction of CcapOBP83a-2) [nM],Kd (CcapOBP83a-2 [3]; second fraction of CcapOBP83a-2),saturation level of 1-NPN (CcapOBP83a-2 [3]; first fraction) [µM],saturation level of 1-NPN (CcapOBP83a-2 [3]; second fraction) [µM],Int (end point fluorescent level): fluorescence intensity after the maximum quantity of chemical was added (CcapOBP83a-2 [1]),"binding activity, in words (CcapOBP83a-2 [1]; first fraction)","Ki (CcapOBP83a-2 [1]; first fraction, 1-NPN 3 μM) [nM]"
CCC(C)C(C)=O (racemic) [(RS)-3-Methylpentan-2-one],65.3,58.3,response only on the female antennae,3,0,–,–,–,–,–,–,–,–,–
C=CC(C)(O)CCC=C(C)C (racemic) [(RS)-Linalool],66.6,44.7,–,3,4,41000,6100 nM,–,–,–,–,–,–,–
"c1ccc(Nc2cccc3ccccc23)cc1 [1-NPN, N-phenyl-1-naphthylamine]",–,–,–,–,–,–,–,10500 ± 1400,600 nM and 617 nM,10 to 20,5 to 10,–,–,–
CC(C)CCO [3-Methylbutan-1-ol],–,–,–,M4F4,M4F4,–,–,–,–,–,–,63.4 and 55.6,–,–
C=C/C(C)=C/CC=C(C)C [(E)-Ocimene],66.3,50.7,response only on the female antennae,4,0,50000,8200 nM and 8170 nM,–,–,–,–,–,–,–
"C=CC(=C)CC/C=C(\C)CCC=C(C)C [(E)-β-Farnesene, reference compound]",75.1,33.6,–,–,–,–,200 nM,–,–,–,–,–,limited degree of binding,1400
"C=C/C(C)=C/C/C=C(\C)CCC=C(C)C [(E,E)-α-Farnesene]",34.3,14.4,small responses in both male and female flies,3,2,1200,100 nM and 133 nM,–,–,–,–,–,–,6560
"C[C@@H](O)[C@@H](C)O [(RR)-2,3-Butanediol]",62.9,58.3,–,3,2,–,–,–,–,–,–,–,–,–
C=C/C(C)=C\CC=C(C)C [(Z)-Ocimene],49.9,23.4,–,M4F4,M4F4,13500,1900 nM and 1890 nM,–,–,–,–,–,–,4520
CC1CCOC1=O (stereo not drawn) [Dihydro-3-methyl-2-(3H)-furanone],66.5,58.1,–,4,3,–,–,–,–,–,–,–,–,–
CC/C=C/CC(=O)OCC [Ethyl (E)-3-hexenoate],68.5,51.5,–,M4F4,M4F4,–,–,–,–,–,–,–,–,–
CCCC/C=C/CC(=O)OCC [Ethyl (E)-3-octenoate],55.6,24.2,–,M4F4,M4F4,18000,2410 nM,–,–,–,–,–,–,–
"CCCCCCCC(=O)OCC [Ethyl octanoate, reference compound]",66.3,26.1,–,–,–,15000,2000 nM and 1960 nM,–,–,–,–,–,–,–
CC(=O)OC/C=C(\C)CCC=C(C)C [Geranyl acetate],70.4,17.4,–,4,5,6500,900 nM and 901 nM,–,–,–,–,–,–,–
c1ccc2[nH]ccc2c1 [Indole],66.2,60.1,–,M3F3,M3F3,–,–,–,–,–,–,–,–,–
"C=CCc1ccc(OC)c(OC)c1 [Methyleugenol, reference compound]",61.9,46.0,–,–,–,43000,4640 nM,–,–,–,–,–,–,–
C=CC(=C)CCC=C(C)C [Myrcene],77.5,39.6,response only on the female antennae,4,0,10000,900 nM and 879 nM,–,–,–,–,–,–,–
"OC1COCC1O (stereo not drawn) [Tetrahydro-3,4-furandiol]",66.2,59.9,–,4,2,–,–,–,–,–,–,–,–,–
"CC1CC(Cl)CCC1C(=O)OC(C)(C)C (stereo not drawn) [Trimedlure, t-Butyl-2-methyl-4-chlorocyclohexanecarboxylate, reference compound]",66.0,9.8,–,–,–,2100,300 nM and 322 nM,–,–,–,–,–,–,–
